Source: patent US11344527B2, “Methods and compositions for treating cancer” (Sutter West Bay Hospitals, priority 2007, dated 2022)
Read-outs that look alike come from different tables or passages of the source.

Assays:
ERK, JNK, and p38 MAPK = experiment: MAPK activity (pERK, ERK, JNK, p38) by Western analysis, U251; format: cell-based, human
Method: Cells cultured and treated in 6-well dishes were washed twice with cold PBS. Lysis buffer was added and cells lysed by freezing for 10 min at −70° C. and then thawing. Cell lysate was collected and the concentration was determined using Bradford reagent. Equal amounts of protein were heated to 90° C. in Laemmli sample buffer with β-mercaptoethanol, and loaded onto a precast SDS-PAGE gel (Bio-Rad Laboratories, Hercules, Calif.). Protein was transferred to an Immobilon membrane (Millipore, Billerica, Mass.) overnight at 2-4° C. Blots were then blocked with 5% nonfat dry milk in TBS+Tween for 1 h. Primary antibody from Millipore (rabbit anti-phospho-JNK, rabbit anti-phospho-p38, rabbit anti-phospho-ERK1/2 and rabbit anti-ERK1/2, 1 mcg/mL) in blocking buffer was then added for 1 h. The blots were then rinsed three times 10 min with TBS+Tween. Secondary antibody (Donkey Anti-Rabbit IgG, Jackson Immunoresearch, West Grove, Pa.) was then added. Blots were incubated for 45 min and then washed 4 times for 15 min each. The blots were developed with SuperSignal Femto (Pierce, Rockford, Ill.), and imaged on either a Fluorchem 8900 (Alpha Innotech, San Leandro, Calif.) or ECL Hyperfilm (Amersham-Pharmacia, Piscataway, N.J.). Band intensity values were obtained (after background subtraction) directly from the […] using AlphaeaseFC software (San Leandro, Calif.) or from film using Image-J (NIH, MD). As a normalization control for loading, blots were stripped and re-probed with mouse alpha-tubulin (Abcam, Cambridge, Mass.) and goat anti-mouse IgG (Jackson Immunoresearch) for the primary and secondary antibodies, respectively.
The regulation of ERK, JNK, and p38 MAPK activity plays a role in controlling cell growth and apoptosis. U251 cells were used to determine whether modulation of ERK, JNK, and p38 MAPK activity occurred.

caspase 3, 7, 9 and PARP = experiment: Caspase and PARP Western analysis, U251; format: cell-based, human; conditions: U251, three days; Δ9-THC 1.7 μM and/or CBD 0.4 μM; FIG. 9
MDA-MB436 cells = experiment: MTT cell proliferation assay, MDA-MB436; conditions: Homo sapiens, MDA-MB-436, 72 h, read-out: IC50 antiproliferative, MDA-MB436
U251 cells [1] = experiment: Cell cycle analysis (PI staining, FACS), U251; format: cell-based, human; conditions: Δ9-THC 1.7 μM and/or CBD 0.4 μM, FIG. 8
Method: U251 cells were grown in Petri dishes (100 mm×15 mm) and received drug treatments for 2 days. On the third day, the cells were harvested and centrifuged at 1200 rpm for 5 minutes. The pellet was washed 1× with PBS+1% BSA, and centrifuged again. The pellet was resuspended in 0.5 ml of 2% paraformaldehyde (diluted with PBS) and left to fix overnight at room temperature. The next day the cells were pelleted and resuspended in 0.5 ml 0.3% Triton in PBS and incubated for 5 minutes at room temperature. The cells were then washed 2 times with PBS+1% BSA. The cells were finally suspended in PBS (0.1% BSA) with 10 ug/ml Propidium Iodide and 100 μg/ml RNAse. The cells were incubated for 30 minutes at room temperature before being stored at 4 C. Cell cycle was measured using a FACS Calibur using Cell Quest Pro and Modfit software.

MDA-MB231 cells [2] = experiment: MTT cell proliferation assay, MDA-MB231; conditions: Homo sapiens, MDA-MB-231, 72 h, read-out: IC50 antiproliferative, MDA-MB231
MDA-MB231 cells [3] = experiment: Boyden chamber invasion assay, MDA-MB231; format: cell-based, human; conditions: 0.1, 1.0 or 1.5 μM; FIG. 1A
Method: Invasion is an important step towards breast cancer cell metastasis. Therefore, the effects of several cannabinoids were tested on their ability to modulate the migratory and invasiveness activity of the most aggressive human breast cancer cell line, MDA-MB231, in a reconstituted basement membrane in a Boyden chamber.

U251 cells [4] = experiment: Boyden chamber invasion assay, U251; format: cell-based, human
SF126 cells = experiment: MTT cell proliferation assay, SF126 GBM cells; format: cell-based, human; conditions: Homo sapiens, read-out: IC50 antiproliferative, SF126
Method: (§1) The human GBM cell lines used were SF126, U87 and U251. Cell lines were maintained at 37° C. and 5% CO2.
(§2) Treatment groups were divided into 1) no treatment (control), 2) Δ^9-THC alone, 3) CBD alone, 4) Δ^9-THC and CBD combined. Positive and negative aspects of constituent interaction were determined in this 2×2 design using 2-way analysis of variance as described by (Slinker, 1998). […] Significant differences were also determined using ANOVA where suitable. […] P values <0.05 defined statistical significance.

U87 cells = experiment: MTT cell proliferation assay, U87 GBM cells; format: cell-based, human; conditions: Homo sapiens, U-87 MG, 168 h, seven day treatment, 95% confidence limits, read-out: IC50 antiproliferative, U87
Method: as §1, §2

Id-1 = Id-1 protein expression by quantitative Western analysis, MDA-MB231; format: cell-based, human; conditions: MDA-MB231 cells, 1.5 μM, two days, FIG. 1E
Source text: Proteins were separated by SDS/PAGE, blotted on Immobilon membrane, and probed with anti-Id-1 and the appropriate secondary antibody. Band intensity values were obtained directly from the blot using AlphaeaseFC software (San Leandro, Calif.) or from film using Image-J (NIH, MD). As a normalization control for loading, blots were stripped and re-probed with mouse alpha-tubulin (Abeam, Cambridge, Mass.).
The ability of CBD to regulate the expression of key genes that control breast cancer cell aggressiveness and invasiveness was determined A potential candidate protein that could mediate the effects of CBD on both phenotypes was the helix-loop-helix protein Id-1. […] The inhibitory effect of CBD on Id-1 expression occurred at concentrations as low as 100 nM. […] The CBD concentrations effective at inhibiting Id-1 expression correlated with those used to inhibit the proliferative and invasive phenotype of MDA-MB231 cells. Furthermore, the time period needed to observe the down-regulation of Id-1 protein in the presence of CBD correlated with the inhibitory effects of CBD on the aggressiveness and invasiveness of MDA-MB231 cells (FIG. 1, panel D).
In order to determine the SAR between cannabinoids and the inhibition of Id-1, MDA-MB231 cells were treated for two days with multiple cannabinoid compounds and Id-1 protein levels were assessed.

U251 cells [5] = experiment: Apoptosis (annexin staining, FACS), U251; format: cell-based, human; conditions: U251, three days
Method: Cells were grown in 6 well culture dishes and were treated with the appropriate compounds every 24 hours for three days. The cells were trypsinized, washed with PBS, and processed for labeling with fluorescein-tagged UTP nucleotide and PI by use of an Apo-Direct apoptosis kit obtained from Phoenix Flow Systems (San Diego, Calif.) and was used according to the manufacturer's protocol. The labeled cells were analyzed by flow cytometry. Cell Flow Cytometry in combination with PI and annexin staining was used to quantify the percentage of cells undergoing apoptosis in control and treatment groups. % control was calculated as annexin positive staining in treated cells/control cells×100. PI staining was used to distinguish necrotic cells from those undergoing apoptosis.

U251 cells [6] = experiment: MTT cell proliferation assay, U251 GBM cells; format: cell-based, human; conditions: Homo sapiens, U-251, 168 h, seven day treatment, 95% confidence limits, read-out: IC50 antiproliferative, U251
Method: as §1, §2

SMILES: CCCCCc1cc(O)c2c(c1)OC(C)(C)C1CCC(C)=CC21 (stereo not drawn) [Δ^9-THC, tetrahydrocannabinol]
- p-ERK, higher concentrations alone compared with the combination (ERK, JNK, and p38 MAPK; U251, three days, 2.5 μM Δ9-THC, 2.0 μM CBD, or 1.7 μM/0.4 μM combination, FIG. 6D): no effect
- p-ERK (ERK, JNK, and p38 MAPK; U251, Δ9-THC 1.7 μM and/or CBD 0.4 μM, two days, FIG. 4): no changes
- caspase 3, 7, 9 and PARP activation (caspase 3, 7, 9 and PARP): Small increases in the activity of caspase 7, caspase 9 and PARP but not caspase 3
- IC50 (MDA-MB436 cells): 2.5 µM
- cell cycle distribution (U251 cells [1]): increases in the population of cells in G1 and G2/M phase and decreases in cells in S phase
- IC50 (MDA-MB231 cells [2]): 1.2 µM
- invasion of MDA-MB231 cells (MDA-MB231 cells [3]): significantly reduced
- invasiveness of U251 cells (U251 cells [4]; Boyden chamber, FIG. 10): effectively inhibited
- IC50 (U251 cells [4]; Homo sapiens, U-251, limits 49-150, read-out: predicted IC50 to inhibit U251 cell invasiveness): 0.085 µM
- IC50 (SF126 cells; SF-126, 72 h, three day treatment, 95% confidence limits (Table 4)): 2.5 µM
- IC50 (SF126 cells; SF-126, 168 h, seven day treatment, 95% confidence limits): 0.9 µM
- IC50 (U87 cells): 1.6 µM
- inhibition of Id-1 protein (structure activity relationship) (Id-1): No inhibition
- inhibition of Id-1 protein (structure activity relationship) (Id-1; listed as THC): no activity
- apoptosis in the presence of the CB2 antagonist SR144528 (U251 cells [5]; 0.5 μM SR144528, combination 1.7/0.4 μM, 2.5 μM Δ9-THC or 2.0 μM CBD, FIG. 6): partially blocked
- apoptosis in the presence of α-tocopherol (U251 cells [5]; 20 μM α-tocopherol, combination 1.7/0.4 μM, 2.5 μM Δ9-THC or 2.0 μM CBD, FIG. 6): completely blocked
- apoptosis (annexin staining) (U251 cells [5]; Δ9-THC 1.7 μM and/or CBD 0.4 μM, FIG. 5): did not produce significant changes
- IC50 (U251 cells [6]): 1.1 µM
